# Results published in patent US6461613B2, “Methods and compositions for the selective regulation of chorionic prostanoids” (priority 1993, dated 2002).
# Ends that are not written are not given here.
# Assays:
# human term placenta [1] = assay: Effect of dexamethasone and GnRH on prostanoid release from perifused human term placental explants; type: cell-based
# Protocol: Medium 199 (x2) with Earles' Modified Salts, bicarbonate and L-glutamine without phenol red was purchased from Gibco (Chagrin Falls, Ohio). Penicillin, streptomycin, bovine serum albumin and Indomethacin were obtained from Sigma Chemicals (St. Louis, Mo.). Placental perifusion was performed essentially as described in Example 3.
# Samples were stored at −20° C. until assayed for PGE, PGF, PGFM, Tx B2 or 6-keto-PGF1α. Recovery and stability of these prostanoids in this perifusion system and during storage were assessed by spiking the medium with prostanoids and perifusing it through empty chambers and collecting samples as described above. In addition, samples were frozen and thawed repeatedly and re-assayed. Prostanoid recovery and stability were nearly 100%. Thus, no data correction for procedural losses was done. Radioimmunoassays were performed as described in Example 1.
# The perifusion system described at Examples 2 and 3 was used in the present study. […] It took one hour for the input medium to pass through the perifusion tubing and chamber and to be collected in the sample tube. Four replicated chambers were perifused with each of the three experimental media, while, in another four replicated chambers, the perifusion was continued with the control Medium 199.
# Hormonal values for a given chamber were normalized to the fifth-hour prostanoid release for that chamber, expressed as a percent release over the fifth-hour release. […] Thus, the release of each chamber was related to functional competence at the time of treatment rather than to its mass.
# The mean release for replicate chambers from a given placenta for each particular hormone in the presence of GnRH, dexamethasone, or GnRH and dexamethasone at each point was calculated. Similar calculations were done for the control chambers. The mean data for each treatment for the three different placentas were subjected to statistical analyses. Thus, the response for each placenta was weighed equally. Two-way analysis of variance was used to determine if there was significant main effect or interaction.
# In addition, the cumulative release for each hormone from each placenta for each treatment was calculated. One-way analysis of variance was used to test for statistically significant effects of treatment. The points of significant variation were determined using Student-Newman-Keuls' test.
# [2] = on the order of at least; cited from earlier work
# human term placenta [3] = assay: Effect of enzyme inhibitors on prostanoid release from perifused human term placental explants (RIA); type: cell-based; settings: indomethacin 50 μg/ml
# Protocol: Radioimmunoassays were performed in a fashion similar to what has been previously described (Siler-Khodr et al., 1986, Biol. Reprod., 35:312) which is specifically incorporated herein for this purpose, with specific exception as noted below. A perifusion model (described in Examples 2 and 3) was employed to determine placental cell response. Media collected from the perifusion samples prepared from placental tissues were assayed. […] All the samples from a given perifusion (placenta) were determined in the same assay. At the beginning of the fifth hour of the perifusion, Medium 199 in the experimental chambers was changed to Medium 199 containing quinacrine (10 μM), EDTA (1 mM), NDGA (10 μM) or indomethacin (50 μg/ml). Four replicated chambers were perifused with control medium and each of the experimental media. This experimental design was repeated in three different perifusions using placental tissues from three different patients according to the procedure described in Example 3. […] Term placentas were obtained and placed on ice immediately after vaginal delivery from patients having spontaneous labor and delivery without any known obstetrical or medical complications. Tissues were obtained in accordance with a protocol approved by the Institutional Review Board. Within 30 minutes, the placental tissues were dissected of decidua, chorionic plates and large fetal vessels on ice. The placental tissues were cut into small fragments (approximately 25 pieces having a total weight of approximately 1 g), rinsed free of blood by repeated washing with ice cold normal saline until clear in color, and the tissue fragments placed in a 3-ml tissue chamber, placed in a 37° C. water bath. […] This medium is hereafter referred to as Medium 199. […] Perifusion was performed for two hours prior to initiation of sample collection. In this fashion, all tissues were thoroughly washed and equilibrated. Samples were collected hourly, beginning at the start of the third hour, into 12×75 mm glass tubes containing 0.1 ml indomethacin and 1100 μg/ml dimethyl sulfoxide [DMSO]. It took approximately one hour for the input medium to pass through the perifusion tubing and chamber and to be collected in the sample tube, thus the dead volume of the system was approximately 1 ml. Collection of the effluent of the 20 chambers was done simultaneously, using an ISCO fraction collector Retriever III adapted with a 20-tube rack and manifold. The prostanoid release for a given chamber was expressed as the increase over the fourth-hour prostanoid release for that chamber. Because there may be differences in the amounts of blood vessels and connective tissue among placental explants, the release expressed per unit weight results in high variance between chambers. […] Thus, the release of each chamber was related to its functional competence at the time of treatment rather than its mass. The mean release for replicate chambers from a given placenta for each particular prostanoid in the presence of arachidonic acid or each of the various enzyme inhibitors was calculated and then the mean data for each of the three different placentas was averaged at each time point. Thus, each placenta was weighted equally in the statistical analyses. Two-way analysis of variance of the average response for each prostanoid for each dose of arachidonic acid or each enzyme inhibitor studied, at each time point, was performed. The normalized data were tested for homogeneity using Cohrna's Q test, and no significant deviation was found. Thus, for each prostanoid and each treatment, where there was a significant main effect or interaction, Dunnett's comparison test was applied to determine the point(s) of significant difference as compared to the control. P<0.05 was considered to be statistically significant.
# [4] = seven hours of perifusion, dexamethasone 10^−8 M, GnRH 10^−7 M, compared to control
molecule,measurement,setting,value
C[C@@H]1C[C@H]2[C@@H]3CCC4=CC(=O)C=C[C@]4(C)[C@@]3(F)[C@@H](O)C[C@]2(C)[C@@]1(O)C(=O)CO [dexamethasone],release as percent of control,"human term placenta [1]; dexamethasone 10^−8 M, seventh hour of incubation",68 % of its control release
same,cumulative release of TxB2,"human term placenta [1]; seven hours of perifusion, dexamethasone 10^−8 M, GnRH 10^−7 M",62%±6%
same,cumulative release of 6-keto-PGF1α,human term placenta [1]; [4],73%±7%
same,cumulative release of PGE,human term placenta [1]; [4],66%±4%
same,cumulative release of PGF,human term placenta [1]; [4],71%±4%
COc1ccc2c(c1)c(CC(=O)O)c(C)n2C(=O)c1ccc(Cl)cc1 [indomethacin],molar concentration necessary to produce pharmacological affects,[2],at least 10^−3 molar (M)
same,PGFM release,human term placenta [3]; after seven hours of perifusion,51.8 % of the release from the control
same,"PGFM release, effect",human term placenta [3]; after three hours of exposure,not inhibited
same,6-keto-PGF1α release,human term placenta [3]; continued perifusion,26.3 % of the control
same,PGE release,human term placenta [3]; continued perifusion,24.0 % of the control
same,PGF release,human term placenta [3]; continued perifusion,9.6 % of the control
same,TxB2 release,human term placenta [3]; continued perifusion,30.5 % of the control
same,6-keto-PGF1α release,human term placenta [3]; three hours post-exposure,41.3 % of control
same,PGE release,human term placenta [3]; three hours post-exposure,33.5 % of control
same,PGF release,human term placenta [3]; three hours post-exposure,22.1 % of control
same,TxB2 release,human term placenta [3]; three hours post-exposure,42.3 % of control
"GnRH: gonadotropin-releasing hormone (QHWSYGLRPG; ends and bridges not checked; UniProt P01148 24-33, looked up)",effect on TxB2 release,"human term placenta [1]; GnRH 10^−7 M, within the first hour, continued throughout perifusion",inhibition
